Biological target: HLA-A*02 (Homo sapiens, UniProt P04439, D140Y/D185E/D98H/E176V/E277Q/G131W/G231S/I119V/I121R/I166T/I218V/L300P/N151K/N90K/P208A/P217A/Q86G/Q94H/R138H/R169H)
Assay: MHC binding assay, UV-ligand exchange with beta2m ELISA, HLA-A*02
Conditions: binding to HLA-A*02 ranged by peptide exchange yield (UV-ligand exchange, beta2m ELISA)
Excerpt: Candidate peptides for T cell based therapies according to the present invention were further tested for their MHC binding capacity (affinity). The individual peptide-MHC complexes were produced by UV-ligand exchange, where a UV-sensitive peptide is cleaved upon UV-irradiation, and exchanged with the peptide of interest as analyzed. Only peptide candidates that can effectively bind and stabilize the peptide-receptive MHC molecules prevent dissociation of the MHC complexes. To determine the yield of the exchange reaction, an ELISA was performed based on the detection of the light chain (ß2 m) of stabilized MHC complexes. The assay was performed as generally described in Rodenko et al. (Rodenko et al., 2006).
96 well MAXISorp plates (NUNC) were coated over night with 2 ug/ml streptavidin in PBS at room temperature, washed 4× and blocked for 1 h at 37° C. in 2% BSA containing blocking buffer. […] Peptide-MHC monomers of the UV-exchange reaction were diluted 100 fold in blocking buffer. Samples were incubated for 1 h at 37° C., washed four times, incubated with 2 ug/ml HRP conjugated anti-β2 m for 1h at 37° C., washed again and detected with TMB solution that is stopped with […]. Absorption was measured at 450 nm. Candidate peptides that show a high exchange yield (preferably higher than 50%, most preferred higher than 75%) are generally preferred for a generation and production of antibodies or fragments thereof, and/or T cell receptors or fragments thereof, as they show sufficient avidity to the MHC molecules and prevent dissociation of the MHC complexes.

| Substance | Peptide exchange |
| --- | --- |
| 89 (YLVAHNLLL; listed as Homo sapiens) [compound 89] | +++ (50%-75% = +++) |
| 340 (SVAKTILKR; listed as Homo sapiens) [compound 340] | ++ (20%-49% = ++) |
| 64 (GLSSSSYEL; listed as Homo sapiens) [compound 64] | ++ (20%-49% = ++) |
| 51 (LLLDGDFTL; listed as Homo sapiens) [compound 51] | +++ (50%-75% = +++) |
| 49 (LLDESKLTL; listed as Homo sapiens) [compound 49] | +++ (50%-75% = +++) |
| 45 (VLGPTPELV; listed as Homo sapiens) [compound 45] | +++ (50%-75% = +++) |
| 57 (VLISSTVRL; listed as Homo sapiens) [compound 57] | ++ (20%-49% = ++) |
| 62 (SLFNQEVQI; listed as Homo sapiens) [compound 62] | +++ (50%-75% = +++) |
| 21 (SLYHRVLLY; listed as Homo sapiens) [compound 21] | ++++ (>=75% = ++++) |
| 12 (GLIYEETRGV; listed as Homo sapiens) [compound 12] | ++ (20%-49% = ++) |
| 82 (VLLRVLIL; listed as Homo sapiens) [compound 82] | ++ (20%-49% = ++) |
| 70 (GLFSQHFNL; listed as Homo sapiens) [compound 70] | +++ (50%-75% = +++) |
| 14 (LLDHLSFINKI; listed as Homo sapiens) [compound 14] | ++ (20%-49% = ++) |

System: HLA-A*24
Assay: MHC binding assay, UV-ligand exchange with beta2m ELISA, HLA-A*24
Set-up: species or system human
Conditions: binding to HLA-A*24 ranged by peptide exchange yield (UV-ligand exchange, beta2m ELISA)
In short: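 Peptide–MHC complexes made by UV-ligand exchange of a UV-cleavable peptide. Exchange yield measured by ELISA: monomers diluted 100-fold on streptavidin-coated plates, 1 h at 37°C, detected with HRP anti-β2m (2 ug/ml) and TMB, absorbance at 450 nm.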

| Substance | Peptide exchange |
| --- | --- |
| 285 (VYVGDALLHAI; listed as Homo sapiens) [compound 285] | +++ (50%-75% = +++) |
| 194 (VYQSLSNSL; listed as Homo sapiens) [compound 194] | +++ (50%-75% = +++) |
| 251 (VYTKALSSL; listed as Homo sapiens) [compound 251] | +++ (50%-75% = +++) |
| 305 (NYENKQYLF; listed as Homo sapiens) [compound 305] | ++++ (>=75% = ++++) |
| 236 (VYLPKIPSW; listed as Homo sapiens) [compound 236] | +++ (50%-75% = +++) |
| 226 (MYLKLVQLF; listed as Homo sapiens) [compound 226] | ++ (20%-49% = ++) |
| 309 (KYYRQTLLF; listed as Homo sapiens) [compound 309] | ++ (20%-49% = ++) |
| 110 (SYPKIIEEF; listed as Homo sapiens) [compound 110] | +++ (50%-75% = +++) |
| 361 (TYADIGGLDNQI; listed as Homo sapiens) [compound 361] | +++ (50%-75% = +++) |
| 219 (SYLKAVFNL; listed as Homo sapiens) [compound 219] | +++ (50%-75% = +++) |
| 169 (NYITGKGDVF; listed as Homo sapiens) [compound 169] | +++ (50%-75% = +++) |
| 258 (AYAQLGYLL; listed as Homo sapiens) [compound 258] | +++ (50%-75% = +++) |
| 273 (IYGEKLQFIF; listed as Homo sapiens) [compound 273] | +++ (50%-75% = +++) |
| 301 (KFDDVTMLF; listed as Homo sapiens) [compound 301] | ++++ (>=75% = ++++) |
| 128 (VYPFDWQYI; listed as Homo sapiens) [compound 128] | ++++ (>=75% = ++++) |
| 345 (EYNSDLHQFF; listed as Homo sapiens) [compound 345] | +++ (50%-75% = +++) |
| 242 (VYGEPRELL; listed as Homo sapiens) [compound 242] | +++ (50%-75% = +++) |
| 260 (VYMNVMTRL; listed as Homo sapiens) [compound 260] | ++++ (>=75% = ++++) |
| 148 (SYGTVSQIF; listed as Homo sapiens) [compound 148] | ++++ (>=75% = ++++) |
| 264 (LYTETRLQF; listed as Homo sapiens) [compound 264] | ++++ (>=75% = ++++) |
| 378 (VYIAELEKI; listed as Homo sapiens) [compound 378] | +++ (50%-75% = +++) |
| 287 (IYNPNLLTASKF; listed as Homo sapiens) [compound 287] | +++ (50%-75% = +++) |
| 216 (FYVNVKEQF; listed as Homo sapiens) [compound 216] | +++ (50%-75% = +++) |

| Substance | Peptide exchange |
| --- | --- |
| 146 (NYYERIHAL; listed as Homo sapiens) [compound 146] | +++ (50%-75% = +++) |
| 135 (VYEAMVPLF; listed as Homo sapiens) [compound 135] | ++++ (>=75% = ++++) |
| 244 (VHFEDTGKTLLF; listed as Homo sapiens) [compound 244] | +++ (50%-75% = +++) |
| 310 (IYAPTLLVF; listed as Homo sapiens) [compound 310] | +++ (50%-75% = +++) |
| 279 (VWLPASVLF; listed as Homo sapiens) [compound 279] | +++ (50%-75% = +++) |
| 153 (VYVPFGGKSMITF; listed as Homo sapiens) [compound 153] | ++++ (>=75% = ++++) |
| 388 (IYGEKTYAF; listed as Homo sapiens) [compound 388] | +++ (50%-75% = +++) |
| 299 (KYQYVLNEF; listed as Homo sapiens) [compound 299] | +++ (50%-75% = +++) |
| 234 (SYLPAIWLL; listed as Homo sapiens) [compound 234] | +++ (50%-75% = +++) |
| 374 (VFLPRVTEL; listed as Homo sapiens) [compound 374] | ++ (20%-49% = ++) |
| 129 (KYIDYLMTW; listed as Homo sapiens) [compound 129] | ++++ (>=75% = ++++) |
| 298 (AYKSEVVYF; listed as Homo sapiens) [compound 298] | ++++ (>=75% = ++++) |
| 121 (RYGLPAAWSTF; listed as Homo sapiens) [compound 121] | +++ (50%-75% = +++) |
| 112 (IYNFVESKL; listed as Homo sapiens) [compound 112] | +++ (50%-75% = +++) |
| 308 (TFDGHGVFF; listed as Homo sapiens) [compound 308] | +++ (50%-75% = +++) |
| 284 (DYLKDPVTI; listed as Homo sapiens) [compound 284] | +++ (50%-75% = +++) |
| 274 (KQLDIANYELF; listed as Homo sapiens) [compound 274] | ++++ (>=75% = ++++) |
| 131 (EYLDRIGQLFF; listed as Homo sapiens) [compound 131] | +++ (50%-75% = +++) |
| 377 (QYTPHSHQF; listed as Homo sapiens) [compound 377] | +++ (50%-75% = +++) |
| 376 (VYTPVASRQSL; listed as Homo sapiens) [compound 376] | +++ (50%-75% = +++) |
| 122 (EYQARIPEF; listed as Homo sapiens) [compound 122] | +++ (50%-75% = +++) |
| 97 (TYTFLKETF; listed as Homo sapiens) [compound 97] | ++++ (>=75% = ++++) |

Reference: patent publication US11541107B2, “Peptides and T cells for use in immunotherapeutic treatment of various cancers” (Immatics Biotechnologies GmbH, priority 2015, dated 2023)
